# Columns and labels:
# Micrococcus luteus = test: Antibacterial activity against Micrococcus luteus; type: functional
# Enterococcus faecalis [1] = test: Antibacterial activity against Enterococcus faecalis NCTC12697; type: functional
# Enterococcus faecalis [2] = test: Antibacterial activity against vancomycin-resistant Enterococcus faecalis; type: functional
# Staphylococcus aureus [3] = test: Antibacterial activity against Staphylococcus aureus NCTC12493
# Bacillus cereus = test: Antibacterial activity against Bacillus cereus; type: functional
# Staphylococcus aureus [4] = test: Antibacterial activity against Staphylococcus aureus EMRSA17; type: functional
# Bacillus subtilis = test: Antibacterial activity against Bacillus subtilis; type: functional
# HaCaT [5] = test: Cytotoxicity against human HaCaT cells at 160 ug/ml incubated for 24 hrs by LDH release assay; type: cell-based; conditions: dose 160 µg/ml
# HaCaT [6] = test: Cytotoxicity against human HaCaT cells at 160 ug/ml incubated for 24 hrs by LDH release assay (reference value: 23.7 +/- 1.4%); type: cell-based; conditions: at 160 µg/mL
Compound,MIC (Micrococcus luteus) [µg/mL],MIC (Enterococcus faecalis [1]) [µg/mL],MIC (Enterococcus faecalis [2]) [µg/mL],MIC (Staphylococcus aureus [3]) [µg/mL],MIC (Bacillus cereus) [µg/mL],MIC (Staphylococcus aureus [4]) [µg/mL],MIC (Bacillus subtilis) [µg/mL],Activity (HaCaT [5]),Activity (HaCaT [6]) [%]
O=C1O/C(=C\c2cccs2)C(c2ccc(O)c(Br)c2)=C1C(=O)c1cc(Br)c(O)c(Br)c1,32,32,32,8,8,32,4,,
O=C1O/C(=C\c2ccc(O)c(Br)c2)C(c2ccc(O)c(Br)c2)=C1C(=O)c1cccs1,8,32,32,8,4,16,8,,
Cn1cc(/C=C2\OC(=O)C(C(=O)c3ccc(O)c(Br)c3)=C2c2ccc(O)c(Br)c2)c2ccccc21,2,16,8,2,2,8,4,Non-Toxic,
O=C1O/C(=C\c2ccc(O)c(Br)c2)C(c2ccc(O)c(Br)c2)=C1C(=O)c1ccc(O)c(Br)c1,8,16,32,8,8,8,16,Non-Toxic,
O=C1O/C(=C\c2ccc(O)c(Br)c2)C(c2cc(Br)c(O)c(Br)c2)=C1C(=O)c1cc(Br)c(O)c(Br)c1 [CADIOLIDE D],64,64,64,32,32,64,64,,
O=C1O/C(=C\c2ccco2)C(c2cc(Br)c(O)c(Br)c2)=C1C(=O)c1ccco1,256,256,256,64,128,128,256,,
CCCN1C(=O)C(C(=O)c2ccco2)=C(c2ccc(O)c(Br)c2)C1=Cc1ccc(O)c(Br)c1 (mixture of isomers),16,16,16,8,4,16,8,,55.7
GENTAMICIN,0.25,8,8,,0.25,> 64,0.25,,
O=C1O/C(=C\c2cccs2)C(c2cc(Br)c(O)c(Br)c2)=C1C(=O)c1cc(Br)c(O)c(Br)c1,128,64,32,32,64,256,32,,
O=C1O/C(=C\c2cc(Br)c(O)c(Br)c2)C(c2ccco2)=C1C(=O)c1cc(Br)c(O)c(Br)c1,16,32,64,32,16,64,16,,
O=C1O/C(=C\c2cc(Br)c(O)c(Br)c2)C(c2cc(Br)c(O)c(Br)c2)=C1C(=O)c1ccco1,32,128,64,32,16,64,32,,
O=C1O/C(=C\c2c[nH]c3ccccc23)C(c2ccc(O)c(Br)c2)=C1C(=O)c1ccc(O)c(Br)c1,8,8,8,2,4,4,8,Non-Toxic,
CN[C@H](CC(C)C)C(=O)N[C@H]1C(=O)N[C@@H](CC(N)=O)C(=O)N[C@H]2C(=O)N[C@H]3C(=O)N[C@H](C(=O)N[C@H](C(=O)O)c4cc(O)cc(O)c4-c4cc3ccc4O)[C@H](O)c3ccc(c(Cl)c3)Oc3cc2cc(c3O[C@@H]2O[C@H](CO)[C@@H](O)[C@H](O)[C@H]2O[C@H]2C[C@](C)(N)[C@H](O)[C@H](C)O2)Oc2ccc(cc2Cl)[C@H]1O [VANCOMYCIN],≤ 0.13,,> 64,,,,0.5,,
O=C1O/C(=C\c2ccco2)C(c2ccc(O)c(Br)c2)=C1C(=O)c1ccc(O)c(Br)c1,32,128,128,32,32,64,32,,
O=C1O/C(=C\c2cc(Br)c(O)c(Br)c2)C(c2cccs2)=C1C(=O)c1cc(Br)c(O)c(Br)c1,8,16,8,16,8,16,8,,
O=C1O/C(=C\c2ccco2)C(c2ccco2)=C1C(=O)c1cc(Br)c(O)c(Br)c1,32,64,64,16,16,64,32,,

# From ChEMBL document CHEMBL4665840, “New antibacterial cadiolide analogues active against antibiotic-resistant strains” (Bioorg Med Chem Lett, 2020)
